# From the supplement of paper PMC10307832
# Legend:
# Assay in all cases: relative viability (nuclei count vs DMSO), 5 days (fraction); higher = more cells survive
# NCI-H2085 = tested on: NCI-H2085
# Summary of the method: (§1)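 Values are medians from duplicate plates. Each reflects relative viability, defined as the nuclei count of treated wells over that of vehicle wells. Lung cancer cell lines in 1536-well plates were pin-tool dosed one day after seeding with one drug alone or with a fixed anchor-drug dose plus five library-drug doses (not always all listed) in √10 steps, then fixed, stained and imaged at 4× after 5 days.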
# NCI-H647 = tested on: NCI-H647
# Summary of the method: as §1
# NCI-H358 = tested on: NCI-H358
# Summary of the method: as §1
# NCI-H2342 = tested on: NCI-H2342
# Summary of the method: as §1
# LXF-289 = tested on: LXF-289
# Summary of the method: as §1
# NCI-H1650 = tested on: NCI-H1650
# Summary of the method: as §1
# NCI-H322M = tested on: NCI-H322M
# Summary of the method: as §1
# NCI-H727 = tested on: NCI-H727
# Summary of the method: as §1
# NCI-H2023 = tested on: NCI-H2023
# Summary of the method: as §1
# SW 1573 = tested on: SW 1573
# Summary of the method: as §1
# NCI-H1915 = tested on: NCI-H1915
# Summary of the method: as §1
# NCI-H2347 = tested on: NCI-H2347
# Summary of the method: as §1
# NCI-H661 = tested on: NCI-H661
# Summary of the method: as §1
# LCLC-97TM1 = tested on: LCLC-97TM1
# Summary of the method: as §1
# NCI-H2009 = tested on: NCI-H2009
# Summary of the method: as §1
# NCI-H1563 = tested on: NCI-H1563
# Summary of the method: as §1
# NCI-H2126 = tested on: NCI-H2126
# Summary of the method: as §1
# SK-LU-1 = tested on: SK-LU-1
# Summary of the method: as §1
# EMC-BAC-2 = tested on: EMC-BAC-2
# Summary of the method: as §1
# HOP-62 = tested on: HOP-62
# Summary of the method: as §1
# BEN = tested on: BEN
# Summary of the method: as §1
# PC-14 = tested on: PC-14
# Summary of the method: as §1
# NCI-H1993 = tested on: NCI-H1993
# Summary of the method: as §1
# H3255 = tested on: H3255
# Summary of the method: as §1
compound,measurement,setting,value
CC(C)Oc1cc(Nc2nc(N[C@@H](C)c3ccc(F)cn3)ncc2Cl)n[nH]1 [AZ23] + COc1cc2c(Oc3ccc(NC(=O)C4(C(=O)Nc5ccc(F)cc5)CC4)cc3F)ccnc2cc1OCCCN1CCOCC1 [Foretinib] (partner 0.25 µM),relative viability,NCI-H2085; first compound 0.01 µM,0.848
same,relative viability,NCI-H2085; first compound 0.03162 µM,1.22
same,relative viability,NCI-H2085; first compound 0.3162 µM,1.08
same,relative viability,NCI-H647; first compound 0.01 µM,1.24
same,relative viability,NCI-H647; first compound 0.03162 µM,1.24
same,relative viability,NCI-H647; first compound 0.3162 µM,1.44
same,relative viability,NCI-H358; first compound 0.01 µM,0.786
same,relative viability,NCI-H358; first compound 0.03162 µM,0.829
same,relative viability,NCI-H358; first compound 0.3162 µM,0.727
same,relative viability,NCI-H2342; first compound 0.01 µM,0.974
same,relative viability,NCI-H2342; first compound 0.03162 µM,1.07
same,relative viability,NCI-H2342; first compound 0.3162 µM,1.05
same,relative viability,LXF-289; first compound 0.01 µM,1.14
same,relative viability,LXF-289; first compound 0.03162 µM,0.977
same,relative viability,LXF-289; first compound 0.3162 µM,0.949
same,relative viability,NCI-H1650; first compound 0.03162 µM,1.51
same,relative viability,NCI-H1650; first compound 0.3162 µM,1.23
same,relative viability,NCI-H322M; first compound 0.03162 µM,0.96
same,relative viability,NCI-H322M; first compound 0.3162 µM,1.04
same,relative viability,NCI-H727; first compound 0.01 µM,0.789
same,relative viability,NCI-H727; first compound 0.03162 µM,0.852
same,relative viability,NCI-H727; first compound 0.3162 µM,1.1
same,relative viability,NCI-H2023; first compound 0.03162 µM,0.88
same,relative viability,NCI-H2023; first compound 0.3162 µM,0.924
same,relative viability,SW 1573; first compound 0.01 µM,1.28
same,relative viability,SW 1573; first compound 0.03162 µM,1.1
same,relative viability,SW 1573; first compound 0.3162 µM,0.562
same,relative viability,NCI-H1915; first compound 0.01 µM,1.22
same,relative viability,NCI-H1915; first compound 0.03162 µM,1.14
same,relative viability,NCI-H1915; first compound 0.3162 µM,1.08
same,relative viability,NCI-H2347; first compound 0.01 µM,0.85
same,relative viability,NCI-H2347; first compound 0.03162 µM,0.986
same,relative viability,NCI-H2347; first compound 0.3162 µM,1.15
same,relative viability,NCI-H661; first compound 0.01 µM,1.15
same,relative viability,NCI-H661; first compound 0.03162 µM,1.06
same,relative viability,NCI-H661; first compound 0.3162 µM,1
same,relative viability,LCLC-97TM1; first compound 0.01 µM,0.922
same,relative viability,LCLC-97TM1; first compound 0.03162 µM,0.928
same,relative viability,LCLC-97TM1; first compound 0.3162 µM,1.01
same,relative viability,NCI-H2009; first compound 0.01 µM,1.23
same,relative viability,NCI-H2009; first compound 0.03162 µM,1.26
same,relative viability,NCI-H2009; first compound 0.3162 µM,1.23
same,relative viability,NCI-H1563; first compound 0.01 µM,0.922
same,relative viability,NCI-H1563; first compound 0.03162 µM,1.01
same,relative viability,NCI-H1563; first compound 0.3162 µM,0.993
same,relative viability,NCI-H2126; first compound 0.01 µM,1.05
same,relative viability,NCI-H2126; first compound 0.03162 µM,1.21
same,relative viability,NCI-H2126; first compound 0.3162 µM,1.19
same,relative viability,SK-LU-1; first compound 0.03162 µM,0.969
same,relative viability,SK-LU-1; first compound 0.3162 µM,0.821
same,relative viability,EMC-BAC-2; first compound 0.01 µM,1.12
same,relative viability,EMC-BAC-2; first compound 0.03162 µM,1.06
same,relative viability,EMC-BAC-2; first compound 0.3162 µM,0.989
same,relative viability,HOP-62; first compound 0.01 µM,1.33
same,relative viability,HOP-62; first compound 0.03162 µM,1.15
same,relative viability,HOP-62; first compound 0.3162 µM,1.3
same,relative viability,BEN; first compound 0.01 µM,0.625
same,relative viability,BEN; first compound 0.03162 µM,0.807
same,relative viability,BEN; first compound 0.3162 µM,0.772
same,relative viability,PC-14; first compound 0.01 µM,1.1
same,relative viability,PC-14; first compound 0.03162 µM,1
same,relative viability,PC-14; first compound 0.3162 µM,1.13
same,relative viability,NCI-H1993; first compound 0.01 µM,0.66
same,relative viability,NCI-H1993; first compound 0.03162 µM,0.725
same,relative viability,NCI-H1993; first compound 0.3162 µM,0.753
same,relative viability,H3255; first compound 0.01 µM,0.881
same,relative viability,H3255; first compound 0.03162 µM,0.764
same,relative viability,H3255; first compound 0.3162 µM,0.915
